Literature values as cited in US7604797B2, “Compositions and methods for treating burns” (BioMechanisms Inc., priority 2003, dated 2009).
Where two headings read alike, the source gives them in different places. Where a SMILES comes first, the peptide text is derived from it. Bridges are numbered along the chain shown (N, C = ends). [ ]: non-standard residue; d: D form. The star is where a group is joined. Ileψ(thiazoline)Cys = CC[C@H](C)[C@H](N)C1=N[C@H](C(=O)*)CS1; dOrn = NCCC[C@@H](N)C(=O)O

What was measured:
malignant tumors = conditions: for Tumor response in patients: acute lymphocytic leukemia, Burkitt's lymphoma, breast carcinoma, mycosis fungoides, epidermoid head and neck cancer, osteogenic sarcoma; for Toxicity of chemotherapy: partly related to polyglutamate formation
[1] = test system: gram-positive and gram-negative organisms, fungi; conditions: topical use on burns

Row | Compound | Tumor response in patients (malignant tumors) | Toxicity of chemotherapy (malignant tumors) | Benefits: effectiveness against microorganisms [1] | further results
1 | Nc1nc(N)c2nc(CNc3ccc(C(=O)NC(CCC(=O)O)C(=O)O)cc3)cnc2n1 (stereo not shown) [AMT, 4-amino-4-deoxy-pteroylglutamic acid] | good to excellent tumor response | a variety of toxicities |  | 
2 | CC[C@H](C)[C@H](N)C1=N[C@H](C(=O)N[C@@H](CC(C)C)C(=O)N[C@H](CCC(=O)O)C(=O)N[C@H](C(=O)N[C@H]2CCCCNC(=O)[C@H](CC(N)=O)NC(=O)[C@@H](CC(=O)O)NC(=O)[C@H](Cc3cnc[nH]3)NC(=O)[C@@H](Cc3ccccc3)NC(=O)[C@H]([C@@H](C)CC)NC(=O)[C@@H](CCCN)NC2=O)[C@@H](C)CC)CS1 [Bacitracin] ({Ileψ(thiazoline)Cys}-L[dE]IK[dOrn]I[dF]H[dD]N; lactam 4-C) |  |  | Effective against gram- | Toxicity and adverse effects in use (burn patients; in vivo): Safe, non-toxic
3 | CN(Cc1cnc2nc(N)nc(N)c2n1)c1ccc(C(=O)NC(CCC(=O)O)C(=O)O)cc1 (stereo not shown) [MTX, 4-amino-4-deoxy-N^10-methyl-pteroylglutamic acid] | good to excellent tumor response | a variety of toxicities |  | 
4 | C[C@@H]1[C@H](O)[C@@H](C)/C=C/C=C/CC/C=C/C=C/C=C/C=C/C(O[C@H]2O[C@H](C)[C@@H](O)[C@H](N)[C@@H]2O)CC2O[C@](O)(CC(O)C(O)CCC(O)CC(O)CC(O)CC(=O)O[C@H]1C)CC(O)C2C(=O)O (stereo partly shown) [Nystatin] |  |  | Effective against the most | 
5 | Neomycin |  |  | Particularly effective | 
6 | Polymyxin B Sulfate |  |  | Effective agains gram- | Toxicity and adverse effects in use (burn patients; topical use on burns): microorganisms. Non-toxic
